Test results as given in PubChem BioAssay (NCI).
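Growth conditions: 96-well plates. Treatment: test compound, 48 hours, 5 concentrations. Analysis: linear interpolation between bracketing concentrations; unreached endpoints set to highest concentration. Here, GI50 denotes the concentration required for 50% inhibition of growth. The concentration for full growth arrest is given as TGI.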

Columns and labels:
Assay in all cases: DTP human tumour cell line panel, 48 h
[1] = test system: SK-MEL-28 melanoma
[2] = test system: LOX IMVI melanoma
[3] = test system: NCI-H460 lung
[4] = test system: SNB-75 CNS
[5] = test system: SF-268 CNS
[6] = test system: SF-295 CNS
[7] = test system: HS 578T breast
[8] = test system: OVCAR-3 ovarian
[9] = test system: NCI-H226 lung
[10] = test system: A498 renal

SMILES | TGI [1] [µM] | TGI [2] [µM] | TGI [3] [µM] | TGI [4] [µM] | TGI [5] [µM] | TGI [6] [µM] | TGI [7] [µM] | TGI [8] [µM] | TGI [9] [µM] | TGI [10] [µM] | GI50 [1] [µM] | GI50 [9] [µM] | GI50 [3] [µM] | GI50 [4] [µM] | GI50 [5] [µM] | GI50 [6] [µM] | GI50 [7] [µM] | GI50 [10] [µM] | GI50 [8] [µM] | GI50 [2] [µM]
C/C=C/C/C=C/CCC(=O)C1OC1C(N)=O (stereo not drawn) | 30.6 | 26.6 | 25.4 | 27.8 | 26.9 | 30 | 76.2 | 32.8 |  |  |  |  |  |  |  |  |  |  |  | 
CC(=O)NC(Cc1c[nH]c2ccccc12)C(=O)O (stereo not drawn) | > 100 | > 100 | > 100 |  | > 100 | > 100 | > 100 | > 100 | > 100 | > 100 |  |  |  |  |  |  |  |  |  | 
C/C(=N\[N+](C)(C)C)C(c1ccccc1)C1(c2ccccc2)C(c2ccccc2)=C1c1ccccc1 (stereo not drawn) |  | > 100 | > 100 |  |  | > 100 |  | > 100 | 93.4 | > 100 |  |  |  |  |  |  |  |  |  | 
O=S(=O)(NCCNc1cc(-c2cn(-c3ccccc3)nc2-c2cccc(O)c2)ccn1)c1ccc(F)cc1 | 5.39 |  | 9.12 | 16.5 | 8.93 | 3.9 | > 100 | 4.59 | 13.7 | 9.26 | 2.03 | 3.06 | 3.12 | 2.83 | 2.42 | 1.75 | 2.94 | 2.69 | 1.98 | 
COc1cc2c(cc1OCCCCCN1CCN(c3cc(=O)oc4c(C)c(OC)ccc34)CC1)N=C[C@@H]1CCCN1C2=O | 0.163 |  | 1.71 | < 0.0281 | 0.318 | 2.42 | 0.791 | 0.0324 | 0.0368 | 0.0289 | < 0.0235 | < 0.01 | 0.0197 | < 0.0155 | < 0.01 | < 0.0139 | < 0.0198 | < 0.0127 | < 0.01 | 
COc1ccc2c(c1)/C(=C/c1c(-c3ccc(C)cc3)nc3sc(C)cn13)C(=O)N2 | > 100 |  | 56.2 | > 100 | > 100 | > 100 | > 100 | > 100 | 95.9 | 60.6 | 23.4 | 20.1 | 6.36 | 11.8 | 11.1 | 11 | 19.8 | 20.2 | 15.5 | 
O=C1CC(c2ccccc2)NCN1 (stereo not drawn) | > 100 | > 100 |  | > 100 | > 100 | > 100 |  | > 100 | > 100 | > 100 |  |  |  |  |  |  |  |  |  | 
CCOC(=O)C(=O)Nc1ccc([N+](=O)[O-])cc1C#N | > 100 | > 100 | > 100 |  | > 100 | > 100 |  | > 100 | > 100 |  |  |  |  |  |  |  |  |  |  | 
COC1=CC(C)C2C[C@H]3O[C@H](O)C[C@H]4C(C)C(=O)C(O)C([C@@]2(C)C1=O)[C@@]34C (stereo partly drawn) | > 100 | > 100 | > 100 | > 100 |  | > 100 |  | > 100 | > 100 | > 100 |  |  |  |  |  |  |  |  |  | 
CCC(=O)Nc1ccc2c(c1)CN1C(=O)c3ccccc3C1=N2 | > 100 | > 100 | > 100 | > 100 | > 100 | > 100 | > 100 | > 100 | > 100 |  | > 100 | > 100 | > 100 | > 100 | > 100 | > 100 | > 100 |  | > 100 | > 100
NC1=NN(c2ccccc2)C(=O)C1C(=O)C(=O)Nc1cccc(C(F)(F)F)c1 (stereo not drawn) |  | > 100 | > 100 |  | > 100 | > 100 |  | > 100 | > 100 | > 100 |  |  |  |  |  |  |  |  |  | 
CCC[CH2][Sn]([CH2]CCC)([O]C(=O)c1cccc(F)c1F)[O][Sn]([CH2]CCC)([CH2]CCC)[O]C(=O)c1cccc(F)c1F | 0.369 | 0.25 | 2.62 | 1.52 | 0.541 | 2.19 |  | 1.64 | 0.851 | 0.526 | 0.154 | 0.317 | 1.3 | 0.317 | 0.157 | 0.919 |  | 0.202 | 0.493 | 0.111
CC(=O)[CH-]C(C)=O.CC(=O)[CH-]C(C)=O.CC(=O)[CH-]C(C)=O.[Cl-].[Hf+4] | > 100 | > 100 | > 100 |  | > 100 | > 100 |  | > 100 | > 100 | > 100 | > 100 | > 100 | > 100 |  | > 100 | > 100 |  | > 100 | > 100 | > 100
O=C1OC2(c3ccccc31)c1cc(I)c(O)c(I)c1Oc1c2cc(I)c(O)c1I | > 100 | > 100 | > 100 | > 100 | > 100 | > 100 | > 100 | > 100 | > 100 |  |  |  |  |  |  |  |  |  |  | 
O=C1NC(=O)[C@H]2C3C=CC([C@@H]12)[C@@H]1C(=O)NC(=O)[C@H]31 | > 100 | > 100 | > 100 |  | > 100 | > 100 | > 100 | > 100 | > 100 |  |  |  |  |  |  |  |  |  |  | 
O[C@H]1[C@H]2[C@H](O)CCCN2C[C@H]1O | > 100 | > 100 | > 100 | > 100 | > 100 | > 100 |  | > 100 | > 100 | > 100 |  |  |  |  |  |  |  |  |  | 
CCN(CC)CCCN1C(=O)c2c(c(C)c3c(oc4cc(O)ccc43)c2C)C1=O | 3.4 | 3.3 | 3.35 | 2.91 | 3.34 | 3.32 |  | 3.27 | 27.4 | 16.9 | 1.83 | 4.47 | 1.82 | 1.52 | 1.74 | 1.84 |  | 5.06 | 1.79 | 1.79
